Measured values reported in paper PMC8309073, “Collagenase and Tyrosinase Inhibitory Effect of Isolated Constituents from the Moss Polytrichum formosum” (Plants, 2021).

How the values were obtained:
collagenase [1] = experiment: FALGPA hydrolysis assay; also retained in Target Binding ultrafiltration UHPLC-MS (RA […]); type: biochemical, Hathewaya histolytica
mushroom tyrosinase = target: T1, mushroom tyrosinase (Agaricus bisporus, UniProt C7FF04); experiment: spectrophotometric L-tyrosine to dopachrome assay, […] nm; also retained in Target Binding (RA […], reference); type: biochemical
T1 construct: gene PPO3; T3824-250KU, Sigma-Aldrich
T1 sequence (C7FF04 2-392): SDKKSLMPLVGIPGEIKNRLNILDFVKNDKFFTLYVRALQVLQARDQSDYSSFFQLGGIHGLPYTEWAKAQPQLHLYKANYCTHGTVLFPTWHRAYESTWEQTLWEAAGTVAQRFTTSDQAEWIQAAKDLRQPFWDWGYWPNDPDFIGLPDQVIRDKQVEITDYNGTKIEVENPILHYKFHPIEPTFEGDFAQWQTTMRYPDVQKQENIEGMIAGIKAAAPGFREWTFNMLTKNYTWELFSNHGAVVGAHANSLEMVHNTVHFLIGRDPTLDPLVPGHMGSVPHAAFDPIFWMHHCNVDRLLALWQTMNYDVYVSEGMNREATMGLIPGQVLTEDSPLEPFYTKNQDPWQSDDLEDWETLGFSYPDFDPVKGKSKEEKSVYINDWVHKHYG

collagenase [2] = experiment: FALGPA hydrolysis assay (compound purity […]); also retained in Target Binding ultrafiltration UHPLC-MS (RA […]); type: biochemical, Hathewaya histolytica

Structure (SMILES): O=C1C[C@@H]2c3ccccc3O[C@H]3c4cc(O)ccc4-c4c(O)cc(O)c1c4[C@H]23 [compound 1, ohioensin A]
- IC50 (collagenase [1]): 72 µM
- inhibition at 200 µM (mushroom tyrosinase): 30%

Structure (SMILES): O=C1C[C@@H]2c3ccccc3O[C@H]3c4ccc(O)c(O)c4-c4c(O)cc(O)c1c4[C@H]23 [compound 2, nor-ohioensin D]
- IC50 (collagenase [2]): 167 µM
